Laboratory results: patent publication US8721858B2, “Non-focusing tracers for indirect detection in electrophoretic displacement techniques” (The Board of Trustees of the Leland Stanford Junior …, priority 2010, dated 2014)

What was measured:
[1] = limiting fully ionized mobility, value = mobility × 10^9; cited from earlier work
[2] = Estimated effective mobilities in ITP zones of FIGS. 4a-b; conditions: % of −17.8×10^−9 m^2V^−1s^−1
Excerpt: We used numerical codes to predict the composition, pH, and fluorescence intensity of each zone for assay design and theory validation. Transient and steady state problems can be simulated with programs such as Simul 5, or a MATLAB-based program developed in-house. For fast solution of most problems, however, we used a steady-state solver written in-house based on the RFQ method described by Beckers and Everaerts. This code adjusts ion mobility and pKa for ionic strength based on the Davies equation and Robinson-Stokes model, respectively. See Table 1 above for the limiting electrophoretic mobilities and pKas of example chemicals used in simulations.
Further details relating to FIGS. 4a-b are as follows. FIGS. 4a-b show detection of HEPES and MOPS with a counterionic (FIG. 4a) and overspeeding coionic (FIG. 4b) fluorescent non-focusing tracer. Top panes are ratios of zone intensities IA/IL, and bottom panes are corresponding images. The zones are, from left to right, TE (tricine), HEPES, MOPS, and LE (MES). The concentration of the tracer increases in high mobility zones. The mobility of the coionic tracer Alexa Fluor 488 (AF488) is close to that of MES, so it is especially sensitive in this region. […]. […] For the left plots, the LE contains 50 μM R6G. For the right plots, the TE contains 5 μM AF488. […].
As discussed in Theory, the sensitivity of counterspeeders tends to be approximately uniform for all analyte mobilities. In contrast, underspeeders and overspeeders offer the potential advantage of extreme sensitivity to analytes with mobilities approximately equal to that of the tracer. In FIGS. 4a-b, we estimate the effective mobility of the LE (MES) to be −17.8×10^−9 m^2V^−1s^−1, and the effective mobilities of MOPS, HEPES, and tricine to be respectively 58%, 41%, and 30% of that value. For the counterspeeder of FIG. 4a, the ratios of analyte-to-LE zone intensities are similar to the effective mobility ratios for MOPS, HEPES, and tricine (I/IL values of 0.69, 0.51, and 0.34, respectively). […]

SMILES	fully-ionized Mobility · 10^9 [1]	effective mobility relative to that of the LE (MES) [2]
CC(=O)O [Acetic acid]	(−1, 42.4) m^2V^−1s^−1	–
[Ba+2].[OH-].[OH-] [Ba(OH)2]	(+2 ,66) m^2V^−1s^−1	–
Cl [Chloride]	(−1, 79.1) m^2V^−1s^−1	–
O=S(=O)(O)CCN1CCN(CCO)CC1 [HEPES, 2-[4-(2-hydroxyethyl)piperazin-1-yl]ethanesulfonic acid]	(−1, 21.8) m^2V^−1s^−1	41%
O=S(=O)(O)CCCN1CCOCC1 [MOPS, 3-morpholinopropane-1-sulfonic acid]	–	58%
O=C(O)CNC(CO)(CO)CO [Tricine, N-(2-Hydroxy-1,1-bis(hydroxymethyl)ethyl)glycine]	(−1, 26.6) m^2V^−1s^−1	30%
NC(CO)(CO)CO [Tris, 2-Amino-2-hydroxymethyl-propane-1,3-diol]	(−1, 29.5) m^2V^−1s^−1	–
